From article PMC10388363, “Novel 1,4-Dihydropyridines as Specific Binders and Activators of SIRT3 Impair Cell Viability and Clonogenicity and Downregulate Hypoxia-Induced Targets in Cancer Cells” (Journal of Medicinal Chemistry, 2023)
Like-named read-outs stand apart in the source and are kept apart here.

Key:
[1] = system: SNAIL, SLUG, ZEB1, COL1A2, MMP2/9 expression in MDA-MB-231; test: qRT-PCR of EMT master regulator and ECM genes in MDA-MB-231 cells; format: cell-based, human; conditions: 48 h; for EMT master regulator and ECM gene expression: MDA-MB-231, 10 μM; for SLUG expression / SNAIL, ZEB1, COLLAGEN, and MMP2/9 gene expression / SLUG gene expression / SNAIL, COL1A2, and MMP2/9 expression levels: MDA-MB-231, 50 μM; for SLUG expression / SNAIL, ZEB1, COLLAGEN, and MMP2/9 gene expression: hypoxic conditions (CoCl2); for SLUG gene expression / SNAIL, COL1A2, and MMP2/9 expression levels: normoxia
Description: Afterward, based on the double localization described for SIRT3, which was primarily found into the mitochondria but translocated into the nucleus in stressful conditions,[75] the effects of SIRT3 activators on gene expression regulation were evaluated in MDA-MB-231 cells.
Considering the previously described involvement of hypoxia in EMT induction,[78] we extended our biological study by analyzing the effects of SIRT3 activators on gene expression regulation under hypoxic conditions. Hypoxia induction of EMT was verified by gene expression analysis (upregulation of SNAIL, ZEB1, COLLAGEN, MMPs, and SLUG) after 72 h of treatment with CoCl2. In these experimental conditions, we verified the effectiveness of the previously tested SIRT3 activators 3c and 3d (50 μM, 48 h) in reducing EMT genes expression.
RNAs were extracted by ReliaPrep RNA tissue miniprep system (Promega, Madison, WI, USA) and reverse transcribed with an iScriptTM c-DNA synthesis kit (Bio-Rad Laboratories Inc., Hercules, CA, USA). Real-time (RT-qPCR) analyses were performed on cDNAs that were amplified by the qPCR reaction using GoTaq qPCR Master Mix (Promega, Madison, WI, USA). Relative amounts obtained with the 2(−ΔCt) method were normalized with respect to the housekeeping gene human L32. Statistical analysis was performed with GraphPad Prism 8, and differences in gene expression were considered significant with a p-value <0.05.

HaCaT cells = test: Cell viability / cell death in healthy HaCaT cells; format: cell-based, human; conditions: for toxicity against healthy HaCaT cells: 5, 10, and 25 μM, 24 and 48 h; for Cell death (%) T24 / Cell death (%) T48: HaCaT; for Cell death (%) T24: 24 h; for Cell death (%) T48: 48 h
Description: Breast cancer cell line MDA-MB-231, anaplastic thyroid cancer cell line CAL-62 and human keratinocytes HaCaT were purchased from ATCC and were cultured in RPMI 1640 medium (R0883 Sigma Aldrich-MERCK) (MDA-MB-231 and CAL-62) or DMEM medium (11965092, Gibco) supplemented with 10% fetal bovine serum (Sigma-Aldrich-MERCK, F9665), 2 mM glutamine (G7513; Sigma-Aldrich-MERCK), 100 units/mL penicillin and 0.1 mg/mL streptomycin (P0781; Sigma-Aldrich-MERCK). Adherent cells were detached by Trypsin–EDTA solution (TA049; Sigma-Aldrich-MERCK). Cells were maintained at 37 °C in humidified incubator with 5% CO2. Cells were treated with […] (CoCl2) (Merck; C8661) dissolved in distilled, sterile water for 24 h to induce hypoxia (200 μM). […] SIRT3 inhibitor 3-TYP was dissolved in DMSO and added to a final concentration of 1 μM for 24 and/or 48 h.
(§1) Cell viability was assessed by the trypan blue exclusion assay. At the end of treatments, cells were harvested and stained with 0,4% trypan blue (Merck; T8154). The cell suspension was applied to a hemocytometer and counted with phase contrast microscopy (NIKON EclipseTE2000U, Nikon Netherlands, Amsterdam, The Netherlands).

MDA-MB-231 cells = test: Scratch assay, MDA-MB-231 cell migration; format: cell-based, human; conditions: 50 μM, 48 h
Description: Next, a scratch assay on MDA-MB-231 cells after treatment with 3c and 3d at 50 μM for 48 h was performed to assess their effect on cell migration (Figure 14).
Cell lines were maintained in culture medium (as above) until reaching 100% confluence, then shifted to a serum-depleted culture medium to inhibit cell proliferation, as described in Magistri et al.;[83] a scratch wound was created on the cell layer using a micropipette tip. Micrographs were taken at 0 and 48 h after the scratch. Cell-devoid areas at 0 and 48 h after the scratch were quantified through the Fiji ImageJ image processing package.

CAL-62 cells [2] = test: Cell viability / cell death, trypan blue exclusion, CAL-62; format: cell-based; conditions: for IC50: read-out: IC50 cell viability reduction
CAL-62 cells [3] = test: as above; format: cell-based; conditions: for reduction of cell viability: CAL-62, 50 μM; for EC50: CAL-62, 48 h, read-out: EC50 cell death induction
Description: Afterward, the selected compounds 3a–d were assayed at 50 μM for 24 and 48 h in CAL-62 and MDA-MB-231 cells to assess their ability to impair the cell viability and colony formation in either normoxia or hypoxia-induced condition, the latter obtained by adding a 200 μM cobalt chloride solution, as described in previous reports[69] (Figure 8). Most cancer cells, mainly solid types, are known to have an altered metabolism due to hypoxia, a non-physiological level of oxygen tension, which contributes to therapy resistance by causing cellular quiescence.[70] Moreover, hypoxic cancer cells can induce several factors that lead to cell proliferation and colony formation.[71]
Breast cancer cell line MDA-MB-231, anaplastic thyroid cancer cell line CAL-62 and human keratinocytes HaCaT were purchased from ATCC and were cultured in RPMI 1640 medium (R0883 Sigma Aldrich-MERCK) (MDA-MB-231 and CAL-62) or DMEM medium (11965092, Gibco) supplemented with 10% fetal bovine serum (Sigma-Aldrich-MERCK, F9665), 2 mM glutamine (G7513; Sigma-Aldrich-MERCK), 100 units/mL penicillin and 0.1 mg/mL streptomycin (P0781; Sigma-Aldrich-MERCK). Adherent cells were detached by Trypsin–EDTA solution (TA049; Sigma-Aldrich-MERCK). Cells were maintained at 37 °C in humidified incubator with 5% CO2. Cells were treated with […] (CoCl2) (Merck; C8661) dissolved in distilled, sterile water for 24 h to induce hypoxia (200 μM). Hypoxic and normoxic cells were also treated with 10/50 μM of the indicated compounds (dissolved in DMSO) for 48 h, maintaining the CoCl2 in the culture medium for hypoxic conditions. SIRT3 inhibitor 3-TYP was dissolved in DMSO and added to a final concentration of 1 μM for 24 and/or 48 h.
as §1

Compound: CCOC(=O)C1=CN(C(=O)c2ccc(OC)c(OC)c2)C=C(C(=O)OCC)C1c1ccccc1 [Compound 3c, Diethyl 1-(3,4-dimethoxybenzoyl)-4-phenyl-1,4-dihydropyridine-3,5-dicarboxylate]
- EMT master regulator and ECM gene expression [1]: effective even at 10 μM
- SLUG expression [1]: affected
- SNAIL, ZEB1, COLLAGEN, and MMP2/9 gene expression [1]: impair
- SLUG gene expression [1]: not significantly affected
- SNAIL, COL1A2, and MMP2/9 expression levels [1]: reduce
- toxicity against healthy HaCaT cells (HaCaT cells): negligible toxicity
- MDA-MB-231 cell migration (MDA-MB-231 cells): nicely reduce

Compound: CCOC(=O)C1=CN(C(=O)c2cc(OC)cc(OC)c2)C=C(C(=O)OCC)C1c1ccccc1 [Compound 3d, Diethyl 1-(3,5-dimethoxybenzoyl)-4-phenyl-1,4-dihydropyridine-3,5-dicarboxylate]
- EMT master regulator and ECM gene expression [1]: effective even at 10 μM
- SLUG expression [1]: affected
- SNAIL, ZEB1, COLLAGEN, and MMP2/9 gene expression [1]: impair
- SLUG gene expression [1]: not significantly affected
- SNAIL, COL1A2, and MMP2/9 expression levels [1]: reduce
- toxicity against healthy HaCaT cells (HaCaT cells): some degree of cell viability reduction and cell death only after 48 h treatment and at higher concentrations (10 and 25 μM)
- Cell death (%) T24 (HaCaT cells; 5 μM): 3,9%
- Cell death (%) T48 (HaCaT cells; 5 μM): 16,1%
- Cell death (%) T24 (HaCaT cells; 10 μM): 8,4%
- Cell death (%) T48 (HaCaT cells; 10 μM): 33,9%
- Cell death (%) T24 (HaCaT cells; 25 μM): 15,3%
- Cell death (%) T48 (HaCaT cells; 25 μM): 47,3%
- Cell death (%) T24 (CAL-62 cells [2]; CAL-62, 5 μM, 24 h): 14,3%
- Cell death (%) T48 (CAL-62 cells [2]; CAL-62, 5 μM, 48 h): 21,7%
- Cell death (%) T24 (CAL-62 cells [2]; CAL-62, 10 μM, 24 h): 20,4%
- Cell death (%) T24 (CAL-62 cells [2]; CAL-62, 25 μM, 24 h): 25,6%
- Cell death (%) T48 (CAL-62 cells [2]; CAL-62, 25 μM, 48 h): 66,1%
- higher efficacy in hypoxia than in normoxia (cell viability reduction and cell death induction) (CAL-62 cells [2]; CAL-62, 48 h): 4.8 fold
- IC50 (CAL-62 cells [2]; Homo sapiens, CAL-62, 48 h, hypoxia): ~3.5 µM
- IC50 (CAL-62 cells [2]; Homo sapiens, CAL-62, 48 h, normoxia): ~16.7 µM
- viability at 5 µM (CAL-62 cells [2]; Homo sapiens, CAL-62, 5 μM, 24 h, read-out: Cell viability (%) T24): 85.7%
- viability at 5 µM (CAL-62 cells [2]; Homo sapiens, CAL-62, 5 μM, 48 h, read-out: Cell viability (%) T48): 78.3%
- viability at 10 µM (CAL-62 cells [2]; Homo sapiens, CAL-62, 10 μM, 48 h, read-out: Cell viability (%) T48): 63.5%
- viability at 25 µM (CAL-62 cells [2]; Homo sapiens, CAL-62, 25 μM, 24 h, read-out: Cell viability (%) T24): 74.4%
- viability at 25 µM (CAL-62 cells [2]; Homo sapiens, CAL-62, 25 μM, 48 h, read-out: Cell viability (%) T48): 33.8%
- Cell death (%) T48 (CAL-62 cells [3]; CAL-62, 10 μM, 48 h): 36,6%
- reduction of cell viability (CAL-62 cells [3]; 24 h, normoxia): 55%
- reduction of cell viability (CAL-62 cells [3]; 48 h, hypoxia (200 μM CoCl2)): 80%
- reduction of cell viability (CAL-62 cells [3]; 48 h, normoxia): 90%
- EC50 (CAL-62 cells [3]; Homo sapiens, hypoxia): ~3.5 µM
- EC50 (CAL-62 cells [3]; Homo sapiens, normoxia): ~16.7 µM
- viability at 10 µM (CAL-62 cells [3]; Homo sapiens, CAL-62, 10 μM, 24 h, read-out: Cell viability (%) T24): 79.6%
- MDA-MB-231 cell migration (MDA-MB-231 cells): nicely reduce
- impairment of MDA-MB-231 migration rate (MDA-MB-231 cells): over 75%

Compound: CCOC(=O)C1=CN(C(=O)c2cccc(OC)c2)C=C(C(=O)OCC)C1c1ccccc1 [Compound 3a, Diethyl 1-(3-methoxybenzoyl)-4-phenyl-1,4-dihydropyridine-3,5-dicarboxylate]
- reduction of cell viability (CAL-62 cells [3]; 24 h, normoxia): 37%
- reduction of cell viability (CAL-62 cells [3]; 48 h, hypoxia (200 μM CoCl2)): 59%
- reduction of cell viability (CAL-62 cells [3]; 48 h, normoxia): 64%
